“Also recorded” adds a separate entry of the source.
Biological target: T1, Factor VIII (Homo sapiens, UniProt P00451)
T1 construct: large-scale purification of a full-length recombinant Factor VIII
Assay: Factor VIII microplate assay
Format: binding
Description: On the basis of the results obtained from the initial collection, additional ligands were prepared and screened in relation to Factor VIII binding and elution behaviour. These studies have been performed either using a simple microtitre plate assay (resin volume 40 μL/well) to determine approximate Factor VIII binding affinity followed by more detailed studies using gravity-flow packed resin columns (0.5 mL resin volume). These packed column studies are more accurate and allow simple experiments to be conducted to determine absolute resin affinity by gradual saturation of the column (200 μL, […]) and following the protein concentration in the eluate after serial addition of each factor VIII aliquot applied to the column. In this way, the binding can be established and elution behaviour of each ligand in parallel.

T1 sequence (P00451 20-2351): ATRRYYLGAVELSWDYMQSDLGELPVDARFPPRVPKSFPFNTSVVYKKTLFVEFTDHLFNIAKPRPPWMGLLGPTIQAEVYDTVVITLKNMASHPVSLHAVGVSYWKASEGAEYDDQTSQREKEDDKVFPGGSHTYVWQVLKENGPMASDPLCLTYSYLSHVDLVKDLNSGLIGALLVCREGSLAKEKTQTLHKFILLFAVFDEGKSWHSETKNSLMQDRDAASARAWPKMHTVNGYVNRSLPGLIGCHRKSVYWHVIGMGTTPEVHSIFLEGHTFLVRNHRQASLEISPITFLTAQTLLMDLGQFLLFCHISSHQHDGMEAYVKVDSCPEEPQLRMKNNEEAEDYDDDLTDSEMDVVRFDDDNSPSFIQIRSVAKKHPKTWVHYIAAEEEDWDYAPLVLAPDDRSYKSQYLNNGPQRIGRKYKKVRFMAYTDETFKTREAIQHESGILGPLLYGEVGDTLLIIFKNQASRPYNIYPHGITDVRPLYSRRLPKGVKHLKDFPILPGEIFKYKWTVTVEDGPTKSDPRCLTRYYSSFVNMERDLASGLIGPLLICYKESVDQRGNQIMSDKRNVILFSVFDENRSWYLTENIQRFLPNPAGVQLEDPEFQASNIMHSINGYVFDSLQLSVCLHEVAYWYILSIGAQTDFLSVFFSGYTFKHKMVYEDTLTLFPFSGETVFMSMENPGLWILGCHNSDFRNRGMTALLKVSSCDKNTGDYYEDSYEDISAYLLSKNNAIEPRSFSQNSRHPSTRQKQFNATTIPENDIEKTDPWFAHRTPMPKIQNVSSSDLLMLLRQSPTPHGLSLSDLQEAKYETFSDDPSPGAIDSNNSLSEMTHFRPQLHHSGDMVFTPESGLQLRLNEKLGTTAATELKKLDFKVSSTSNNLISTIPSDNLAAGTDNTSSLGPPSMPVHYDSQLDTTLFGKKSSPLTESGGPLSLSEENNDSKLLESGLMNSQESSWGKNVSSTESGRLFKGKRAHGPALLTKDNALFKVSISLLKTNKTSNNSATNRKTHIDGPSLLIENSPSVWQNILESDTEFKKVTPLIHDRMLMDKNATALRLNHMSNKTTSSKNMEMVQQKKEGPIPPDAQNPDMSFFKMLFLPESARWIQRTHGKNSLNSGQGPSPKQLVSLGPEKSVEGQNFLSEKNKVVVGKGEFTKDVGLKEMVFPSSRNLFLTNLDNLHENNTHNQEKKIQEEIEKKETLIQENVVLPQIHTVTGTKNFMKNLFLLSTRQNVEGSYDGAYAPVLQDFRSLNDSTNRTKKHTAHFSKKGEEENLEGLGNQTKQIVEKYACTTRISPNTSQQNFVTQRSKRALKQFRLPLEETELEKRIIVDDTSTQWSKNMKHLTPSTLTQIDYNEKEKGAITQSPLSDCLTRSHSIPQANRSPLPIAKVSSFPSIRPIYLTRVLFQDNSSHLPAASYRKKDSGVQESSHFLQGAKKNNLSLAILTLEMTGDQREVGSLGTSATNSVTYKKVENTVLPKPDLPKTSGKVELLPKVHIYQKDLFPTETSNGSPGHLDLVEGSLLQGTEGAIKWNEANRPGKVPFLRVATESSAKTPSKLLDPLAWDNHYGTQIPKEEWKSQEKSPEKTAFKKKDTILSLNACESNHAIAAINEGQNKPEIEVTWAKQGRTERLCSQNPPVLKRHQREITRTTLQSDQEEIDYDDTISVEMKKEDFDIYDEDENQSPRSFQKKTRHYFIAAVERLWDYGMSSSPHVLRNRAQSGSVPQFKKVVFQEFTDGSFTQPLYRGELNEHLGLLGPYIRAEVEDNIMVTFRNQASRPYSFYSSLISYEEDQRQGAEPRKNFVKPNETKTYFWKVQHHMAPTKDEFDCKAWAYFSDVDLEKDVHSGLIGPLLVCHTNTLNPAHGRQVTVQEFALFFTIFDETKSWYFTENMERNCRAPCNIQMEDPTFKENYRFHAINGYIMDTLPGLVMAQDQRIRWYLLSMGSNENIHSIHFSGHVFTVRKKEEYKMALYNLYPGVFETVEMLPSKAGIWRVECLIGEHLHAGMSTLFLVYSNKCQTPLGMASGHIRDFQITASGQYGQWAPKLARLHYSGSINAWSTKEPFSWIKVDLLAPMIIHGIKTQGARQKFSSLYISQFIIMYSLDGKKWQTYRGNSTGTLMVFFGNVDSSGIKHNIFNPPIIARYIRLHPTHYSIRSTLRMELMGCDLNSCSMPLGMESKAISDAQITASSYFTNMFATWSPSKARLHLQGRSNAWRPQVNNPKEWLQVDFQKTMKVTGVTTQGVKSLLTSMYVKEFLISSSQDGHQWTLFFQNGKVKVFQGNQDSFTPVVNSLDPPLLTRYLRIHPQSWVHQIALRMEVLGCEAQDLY

Structure (SMILES): COC(=O)c1cccc(Nc2nc(C)nc(Nc3cccc4c(S(=O)(=O)OC)cccc34)n2)c1 [34/43]
- Factor VIII binding (in words): strongest Factor VIII binding and elution characteristics; also recorded: one of the highest Factor VIII binding potential
- Factor VIII Bound (initial collection U1-U4 and comparison ligand): 106.3 µg/mL

— patent publication US20100203650A1, “BIOMOLECULE BINDING LIGANDS” (CAMBRIDGE ENTERPRISE LIMITED, priority 2007, published 2010)
